What all share (type): cell-based
The subject of one assay is K562 cancer cell. Description: Growth inhibition of K562 cancer cell (MTT). To be noted: for improved activity compared with Imatinib mesylate: K562; for IC50: Homo sapiens, K562, 48 h, K562, MTT, 2 days. As for the experimental part: (§1) In the present experiment, the inhibitory activity of the compound of formula (1) was determined against the growth of K562 cancer cell. First, the cells were allowed to stand in RPMI (Roswell Park Memorial Institute)-1640 medium containing 10% (v/v) fetal bovine serum in an incubator of 37° C. and 5% by volume of CO2. The cancer cells (1000 cells) were transferred to a 96-well plate, and the test compound was diluted. The plate was allowed to stand under the above mentioned conditions for 2 days. After this treatment, to the cells was added 0.2% MTT (3-[4,5-dimethylthiazol-2-yl]-2,5-diphenyltetrazolium bromide) solution, and the resulting mixture was allowed to stand under the constant temperature-condition for 4 hours. The supernatant was removed to leave the resulting crystal. DMSO was added to dissolve the crystal, and the absorbance of the solution was measured at 540 nm. IC50 value was calculated using a computer system according to the following formula: (OD540(test)−OD540(blank)/OD540(control)−OD540(blank))×100

Another assay deals with CT-26 cancer cell. Description: Growth inhibition of CT-26 cancer cell (MTT). To be noted: for improved activity compared with Imatinib mesylate: CT-26; for IC50: CT-26, MTT, 2 days. On the procedure: as §1
In the present experiment, the inhibitory activity of the compounds of formula (1) was determined against the growth of CT-26 cancer cell. The test was performed according to the same procedure as Experiment 1.

The next assay relates to SNU-1. Description: Growth inhibition of gastric cancer cell SNU-1 (MTT). To be noted: SNU-1, Experiment 4. On the procedure: as §1
(§2) The test was performed according to the same procedure as Experiment 1.
as §2

The next assay has as its system A549. The assay is described as follows: Growth inhibition of lung cancer cell A549 (MTT). The note with it: A549, Experiment 4. As for the experimental part:
as §1, §2, §2

In a further assay the test system is Sarcoma-180. The assay is described as follows: Growth inhibition of Sarcoma-180 (MTT). The note with it: Sarcoma-180, Experiment 4. On the procedure: as §1, §2
The test system of a further assay is SK-OV-03. Description: Growth inhibition of ovarian cancer cell SK-OV-03 (MTT). To be noted: SK-OV-03, Experiment 4. On the procedure:
as §1, §2

A further assay deals with KB. Description: Growth inhibition of oral epithelial cancer cell KB (MTT). The note with it: Experiment 4. As for the experimental part: as §1, §2
The mark [1] stands for this setting: Mus musculus, CT26, 48 h, read-out: IC50.

Structures are written as SMILES. Converted amounts (≈) assume the structure as drawn. Where two headings read alike, the source gives them in different places.

We go through eight compounds from US7501424B2, “N-phenyl-2-pyrimidine-amine derivatives and process for the preparation thereof” (Il-Yang Pharm. Co., Ltd., priority 2005, dated 2009).

In general, IC50 refers to the concentration at which inhibition is half-maximal. With `Cc1ccc(C(=O)Nc2cc(-n3ccnc3C)cc(C(F)(F)F)c2)cc1Nc1nccc(-c2nccs2)n1` [Example 6, 4-methyl-N-[3-(2-methylimidazol-1-yl)-5-trifluoromethyl-phenyl]-3-(4-thiazol-2-yl-pyrimidin-2-ylamino)-benzamide], the “improved activity compared with Imatinib mesylate” value in the assay with K562 cancer cell is 50 times; in the assay with CT-26 cancer cell, 300 times. For the same compound, the 50% inhibitory concentration (IC50) with CT-26 cancer cell (setting [1]) is below 10 ng/mL.
As to `Cc1ccc(C(=O)Nc2cc(-n3ccnc3C)cc(C(F)(F)F)c2)cc1Nc1nccc(-c2nccnc2C)n1` [Example 13, 4-methyl-N-[3-(2-methylimidazol-1-yl)-5-trifluoromethyl-phenyl]-3-[4-(3-methylpyrazin-2-yl)-pyrimidin-2-ylamino]-benzamide], in the assay with K562 cancer cell, the IC50 turned out to be 304 ng/mL (≈ 0.558 µM) and the “improved activity compared with Imatinib mesylate” value is reported as “much higher activity than Imatinib mesylate”. In addition, the concentration for half-maximal inhibition (IC50) in the assay with CT-26 cancer cell (setting [1]) turned out to be 3770 ng/mL (≈ 6.92 µM).
As for `Cc1cn(-c2cc(NC(=O)c3ccc(Nc4nccc(-c5cccnc5)n4)cc3)cc(C(F)(F)F)c2)cn1.Cl.Cl` [Example 24, N-[3-(4-methylimidazol-1-yl)-5-trifluoromethyl-phenyl]-4-(4-pyridin-3-yl-pyrimidin-2-ylamino)-benzamide 2 hydrochloride], in the assay on K562 cancer cell, the “improved activity compared with Imatinib mesylate” value was 50 times. For the same compound, in the assay on CT-26 cancer cell, the “improved activity compared with Imatinib mesylate” value came to 300 times and the IC50 amounted to 2.3 ng/mL.
Turning to `Cc1cn(-c2cc(NC(=O)c3ccc(Nc4nccc(-c5nccs5)n4)cc3)cc(C(F)(F)F)c2)cn1.Cl.Cl` [Example 30, N-[3-(4-methylimidazol-1-yl)-5-trifluoromethyl-phenyl]-4-(4-thiazol-2-yl-pyrimidin-2-ylamino)-benzamide 2 hydrochloride], the “improved activity compared with Imatinib mesylate” value in the assay with K562 cancer cell was 50 times. In the assay with CT-26 cancer cell, the “improved activity compared with Imatinib mesylate” value was determined as 300 times and the IC50 amounted to 9.4 ng/mL.
As to `N.N.[Cl][Pt][Cl]` [Cisplatin, reference compound], the IC50 with SNU-1 was 2064 ng/mL; in the assay with A549 it was 679 ng/mL; in the assay on Sarcoma-180, below 0.1 ng/mL; in the assay on SK-OV-03 it was 782 ng/mL; in the assay with KB, 0.28 ng/mL.
With `Cc1cnc(NC(=O)c2ccc(C)c(Nc3nccc(-c4nccs4)n3)c2)s1` [Example 7, 4-methyl-N-(5-methylthiazol-2-yl)-3-(4-thiazol-2-yl-pyrimidin-2-ylamino)-benzamide], the half-maximal inhibitory concentration (IC50) with K562 cancer cell was at most 10 ng/mL; in the assay with CT-26 cancer cell (setting [1]), below 10 ng/mL. Besides, the “improved activity compared with Imatinib mesylate” value in the assay with K562 cancer cell is 50 times; in the assay on CT-26 cancer cell it was 300 times.
As to `Cc1cn(-c2cc(NC(=O)c3ccc(C)c(Nc4nccc(-c5nccnc5C)n4)c3)cc(C(F)(F)F)c2)cn1` [Example 12, 4-methyl-N-[3-(4-methylimidazol-1-yl)-5-trifluoromethyl-phenyl]-3-[4-(3-methylpyrazin-2-yl)-pyrimidin-2-ylamino]-benzamide], in the assay on K562 cancer cell, half-maximal inhibition (IC50) was put at 210 ng/mL (≈ 0.386 µM) and the “improved activity compared with Imatinib mesylate” value was “much higher activity than Imatinib mesylate”. Further, the IC50 with CT-26 cancer cell (setting [1]) worked out at 2930 ng/mL (≈ 5.38 µM).
Consider `Cc1ccc(C(=O)Nc2cc(-n3ccnc3C)cc(C(F)(F)F)c2)cc1Nc1nccc(-c2cnccn2)n1` [Example 9, 4-methyl-N-[3-(2-methylimidazol-1-yl)-5-trifluoromethyl-phenyl]-3-(4-pyrazin-2-yl-pyrimidin-2-ylamino)-benzamide], for which the IC50 in the assay with K562 cancer cell is at most 10 ng/mL; in the assay with CT-26 cancer cell (setting [1]), below 10 ng/mL. Further, the entries for the “improved activity compared with Imatinib mesylate” value with K562 cancer cell and in the assay with CT-26 cancer cell were 50 times and 300 times, respectively.
